Values after ≈ are worked out from the molar mass of the structure shown. Values joined by “and” are separate entries in the source; they are usually repeats but may differ in a detail not shown here. Equal entries are not always repeated.
How the values were obtained:
Format in all cases: functional
Staphylococcus aureus [1] = test: Antimicrobial activity against Staphylococcus aureus A8727
Staphylococcus aureus [2] = test: Antimicrobial activity against Staphylococcus aureus ATCC 29213
Streptococcus pneumoniae [3] = test: Antimicrobial activity against Streptococcus pneumoniae 02J1258
Staphylococcus aureus [4] = test: Antimicrobial activity against Staphylococcus aureus A8761
Staphylococcus aureus [5] = test: Antimicrobial activity against methicillin-resistant Staphylococcus aureus BK 11512
Streptococcus pneumoniae [6] = test: Antimicrobial activity against Streptococcus pneumoniae PU1071099 harboring 65WR66 deletion in ribosomal protein L4 by broth microdilution method
Enterococcus faecalis [7] = test: Antimicrobial activity against Enterococcus faecalis ATCC 29212-P5 harboring G2576U mutation in 23S rRNA
Enterococcus faecium [8] = test: Antimicrobial activity against Enterococcus faecium A9621 by broth microdilution method
Haemophilus influenzae [9] = test: Antimicrobial activity against Haemophilus influenzae 54A1100
Streptococcus pneumoniae [10] = test: Antimicrobial activity against Streptococcus pneumoniae 02J1175 assessed as log reduction in bacterial growth at 8 times MIC after 24 hrs by time-kill assay
Staphylococcus aureus [11] = test: Antimicrobial activity against Staphylococcus aureus pL150
Staphylococcus aureus [12] = test: Antimicrobial activity against methicillin-susceptible Staphylococcus aureus nosocomial isolate
Staphylococcus capitis = test: Antimicrobial activity against Staphylococcus capitis A8935
Streptococcus pneumoniae [13] = test: Antimicrobial activity against Streptococcus pneumoniae 02J1175
Enterococcus faecalis [14] = test: Antimicrobial activity against Enterococcus faecalis A6343
Streptococcus pneumoniae [15] = test: Antimicrobial activity against Streptococcus pneumoniae ribosomal mutant
Haemophilus influenzae [16] = test: Antimicrobial activity against Haemophilus influenzae A1950 assessed as log reduction in bacterial growth at 8 times MIC after 24 hrs by time-kill assay
Enterococcus faecalis [17] = test: Antimicrobial activity against vancomycin-resistant Enterococcus faecalis nosocomial isolate
Streptococcus pneumoniae [18] = test: Antimicrobial activity against Streptococcus pneumoniae 02J1258 assessed as log reduction in bacterial growth at 8 times MIC after 24 hrs by time-kill assay
Staphylococcus aureus [19] = test: Antimicrobial activity against methicillin resistant Staphylococcus aureus 67-0
Enterococcus faecium [20] = test: Antimicrobial activity against Enterococcus faecium A6348 harboring G2576U mutation in 23S rRNA
Enterococcus faecium [21] = test: Antimicrobial activity against Enterococcus faecium A6349 harboring G2576U mutation in 23S rRNA
Haemophilus influenzae [22] = test: Antimicrobial activity against Haemophilus influenzae A1950 assessed as log reduction in bacterial growth at 4 times MIC after 24 hrs by time-kill assay
Streptococcus pneumoniae [23] = test: Antimicrobial activity against Streptococcus pneumoniae 02J1258 assessed as log reduction in bacterial growth at 4 times MIC after 24 hrs by time-kill assay
Staphylococcus aureus [24] = test: Antimicrobial activity against Staphylococcus aureus A8831 harboring U2500A mutation in 23S rRNA
Enterococcus faecalis [25] = test: Antimicrobial activity against Enterococcus faecalis A6350
Enterococcus faecalis [26] = test: Antimicrobial activity against vancomycin-resistant Enterococcus faecalis 03B1069
Staphylococcus aureus [27] = test: Antimicrobial activity against Staphylococcus aureus pLXM1 harboring cfr gene
Staphylococcus hominis = test: Antimicrobial activity against Staphylococcus hominis A7828
Enterococcus faecium [28] = test: Antimicrobial activity against Enterococcus faecium A6345
Staphylococcus aureus [29] = test: Antimicrobial activity against Staphylococcus aureus A7817
Enterococcus faecium [30] = test: Antimicrobial activity against Enterococcus faecium A9650
Moraxella catarrhalis = test: Antimicrobial activity against Moraxella catarrhalis
Enterococcus faecium [31] = test: Antimicrobial activity against Enterococcus faecium A8948
Staphylococcus aureus [32] = test: Antimicrobial activity against Staphylococcus aureus A7820
Enterococcus faecium [33] = test: Antimicrobial activity against Enterococcus faecium A8767
Enterococcus faecium [34] = test: Antimicrobial activity against Enterococcus faecium A6349
Enterococcus faecium [35] = test: Antimicrobial activity against Enterococcus faecium A5960
Haemophilus influenzae [36] = test: Antimicrobial activity against Haemophilus influenzae 54A1100 assessed as log reduction in bacterial growth at 4 times MIC after 24 hrs by time-kill assay
Haemophilus influenzae [37] = test: Antimicrobial activity against Haemophilus influenzae A1950
[38] = test system: Staphylococcus epidermidis; test: Antimicrobial activity against Staphylococcus epidermidis A8934
Enterococcus faecalis [39] = test: Antimicrobial activity against Enterococcus faecalis ATCC 29212
Enterococcus faecium [40] = test: Antimicrobial activity against Enterococcus faecium A8130
Enterococcus faecium [41] = test: Antimicrobial activity against Enterococcus faecium A5959
Streptococcus pneumoniae [42] = test: Antimicrobial activity against Streptococcus pneumoniae 02J1175 assessed as log reduction in bacterial growth at 4 times MIC after 24 hrs by time-kill assay
Staphylococcus aureus [43] = test: Antimicrobial activity against Staphylococcus aureus A7819 harboring G2576U mutation in 23S rRNA
Staphylococcus aureus [44] = test: Antimicrobial activity against Staphylococcus aureus A8833 harboring U2500A mutation in 23S rRNA
Staphylococcus aureus [45] = test: Antimicrobial activity against methicillin-resistant Staphylococcus aureus BK 11118
Streptococcus pyogenes = test: Antimicrobial activity against Streptococcus pyogenes
Enterococcus faecalis [46] = test: Antimicrobial activity against Enterococcus faecalis A7789
Streptococcus pneumoniae [47] = test: Antimicrobial activity against Streptococcus pneumoniae harboring erm(B) gene by broth microdilution method; details: Streptococcus pneumoniae; read-out: MIC
Streptococcus pneumoniae [48] = test: Antimicrobial activity against Streptococcus pneumoniae harboring erm(B) and mef(A) gene
Haemophilus influenzae [49] = test: Antimicrobial activity against Haemophilus influenzae 54A1100 assessed as log reduction in bacterial growth at 8 times MIC after 24 hrs by time-kill assay
Enterococcus faecalis [50] = test: Antimicrobial activity against Enterococcus faecalis A5962
Chlamydia trachomatis = test: Antimicrobial activity against Chlamydia trachomatis isolated from human respiratory tract by broth microdilution method
Chlamydia pneumoniae = test: Antimicrobial activity against Chlamydophila pneumoniae isolated from human respiratory tract by broth microdilution method
Metamycoplasma hominis = test: Antimicrobial activity against Mycoplasma hominis isolated from human respiratory tract by broth microdilution method

CC(=O)NC[C@H]1CN(c2ccc(-c3ccc(CNCCCF)cc3)c(F)c2)C(=O)O1
MIC (Staphylococcus aureus [1]): 4 µg/mL (≈ 9.58 µM)
MIC (Staphylococcus aureus [2]): 2 µg/mL (≈ 4.79 µM)
MIC (Streptococcus pneumoniae [3]): 0.25 µg/mL (≈ 0.599 µM)
MIC (Staphylococcus aureus [4]): 8 µg/mL (≈ 19.2 µM)
MIC (Staphylococcus aureus [5]): 2 µg/mL (≈ 4.79 µM)
MIC (Streptococcus pneumoniae [6]): 0.5 µg/mL (≈ 1.2 µM)
MIC (Enterococcus faecalis [7]): 2 µg/mL (≈ 4.79 µM)
MIC (Enterococcus faecium [8]): 4 µg/mL (≈ 9.58 µM)
MIC (Haemophilus influenzae [9]): 2 µg/mL (≈ 4.79 µM)
FC (Streptococcus pneumoniae [10]): >3
MIC (Staphylococcus aureus [11]): 0.5 µg/mL (≈ 1.2 µM)
MIC (Staphylococcus aureus [12]): 1 µg/mL (≈ 2.4 µM)
MIC (Staphylococcus aureus [12]; Staphylococcus aureus, read-out: MIC): 0.5 µg/mL (≈ 1.2 µM)
MIC (Staphylococcus capitis): 1 µg/mL (≈ 2.4 µM)
MIC (Streptococcus pneumoniae [13]): 0.125 µg/mL (≈ 0.299 µM)
MIC (Enterococcus faecalis [14]): 2 µg/mL (≈ 4.79 µM)
MIC (Streptococcus pneumoniae [15]): ≤ 0.25 µg/mL
FC (Haemophilus influenzae [16]): >3
MIC (Enterococcus faecalis [17]): 0.5 µg/mL (≈ 1.2 µM)
MIC (Enterococcus faecalis [17]; Enterococcus faecalis, read-out: MIC): ≤ 0.25 µg/mL
FC (Streptococcus pneumoniae [18]): >3
MIC (Staphylococcus aureus [19]): 1 µg/mL (≈ 2.4 µM)
MIC (Enterococcus faecium [20]): 4 µg/mL (≈ 9.58 µM)
MIC (Enterococcus faecium [21]): 1 µg/mL (≈ 2.4 µM)
FC (Haemophilus influenzae [22]): >3
FC (Streptococcus pneumoniae [23]): >3
MIC (Staphylococcus aureus [24]): 64 µg/mL (≈ 153 µM)
MIC (Enterococcus faecalis [25]): 1 µg/mL (≈ 2.4 µM)
MIC (Enterococcus faecalis [26]): 0.5 µg/mL (≈ 1.2 µM)
MIC (Staphylococcus aureus [27]): 1 µg/mL (≈ 2.4 µM)
MIC (Staphylococcus hominis): 4 µg/mL (≈ 9.58 µM)
MIC (Enterococcus faecium [28]): 4 µg/mL (≈ 9.58 µM)
MIC (Staphylococcus aureus [29]): 16 µg/mL (≈ 38.3 µM)
MIC (Enterococcus faecium [30]): 1 µg/mL (≈ 2.4 µM)
MIC (Moraxella catarrhalis): 2 µg/mL (≈ 4.79 µM)
MIC (Moraxella catarrhalis; Moraxella catarrhalis, read-out: MIC): 1 µg/mL (≈ 2.4 µM)
MIC (Enterococcus faecium [31]): 0.5 µg/mL (≈ 1.2 µM)
MIC (Staphylococcus aureus [32]): 16 µg/mL (≈ 38.3 µM)
MIC (Enterococcus faecium [33]): 2 µg/mL (≈ 4.79 µM)
MIC (Enterococcus faecium [34]): 1 µg/mL (≈ 2.4 µM)
MIC (Enterococcus faecium [35]): 4 µg/mL (≈ 9.58 µM)
FC (Haemophilus influenzae [36]): >3
MIC (Haemophilus influenzae [37]): 4 µg/mL (≈ 9.58 µM)
MIC [38]: 4 µg/mL (≈ 9.58 µM)
MIC (Enterococcus faecalis [39]): 1 µg/mL (≈ 2.4 µM)
MIC (Enterococcus faecium [40]): 2 µg/mL (≈ 4.79 µM)
MIC (Enterococcus faecium [41]): 4 µg/mL (≈ 9.58 µM)
FC (Streptococcus pneumoniae [42]): >3
MIC (Staphylococcus aureus [43]): 16 µg/mL (≈ 38.3 µM)
MIC (Staphylococcus aureus [44]): 32 µg/mL (≈ 76.7 µM)
MIC (Staphylococcus aureus [45]): 1 µg/mL (≈ 2.4 µM)
MIC (Streptococcus pyogenes): 0.25 µg/mL (≈ 0.599 µM)
MIC (Streptococcus pyogenes; Streptococcus pyogenes, read-out: MIC): 0.125 µg/mL (≈ 0.299 µM)
MIC (Enterococcus faecalis [46]): 4 µg/mL (≈ 9.58 µM)
MIC (Streptococcus pneumoniae [47]): ≤ 0.25 µg/mL
MIC (Streptococcus pneumoniae [48]): ≤ 0.25 µg/mL
FC (Haemophilus influenzae [49]): >3
MIC (Enterococcus faecalis [50]): 4 µg/mL (≈ 9.58 µM)

CC[C@H]1OC(=O)[C@H](C)[C@@H](O[C@H]2C[C@@](C)(OC)[C@@H](O)[C@H](C)O2)[C@H](C)[C@@H](O[C@@H]2O[C@H](C)C[C@H](N(C)C)[C@H]2O)[C@](C)(O)C[C@@H](C)C(=O)[C@H](C)[C@@H](O)[C@]1(C)O [ERYTHROMYCIN]
MIC (Chlamydia trachomatis): 0.12 µg/mL and 0.25 µg/mL
MIC (Chlamydia pneumoniae): 0.5 µg/mL (≈ 0.681 µM)
MIC (Metamycoplasma hominis): 16 µg/mL and 32 µg/mL
